The values below are quoted from earlier work in patent publication EP3290033A2, “PHARMACEUTICAL PACKAGE” (Samyang Biopharmaceuticals Corporation, priority 2015, dated 2016).

Bounds are passed on as bounds.

A word on the half-life: it is the time needed for the level to fall by half in the phase considered.

For series [1] the following is noted: in vivo.
The conditions of series [2]: higher than that of other first-generation 5-HT3 receptor antagonists.

Consider `O=C1c2cccc3c2[C@H](CCC3)CN1[C@@H]1CN2CCC1CC2` [palonosetron, (3aS)-2-[(3S)-1-azabicyclo[2.2.2]oct-3-yl]-2,3,3a,4,5,6-hexahydro-1H-benz[de]isoquinolin-1-one], for which the half-life in series [1] was no less than 40 h. For the same compound, the “inhibitory effect on delayed vomiting” value in series [2] was 10 times.
